Experiments:
SK-BR-3 = assay: Inhibition of cells growth by colorimetric (SRB) assay, SK-BR-3; conditions: for GI50 / CC50: Homo sapiens, SK-BR-3, 48 h; for GI50: read-out: GI50 SK-BR-3, SRB assay, 48 hours exposure; for CC50: read-out: LC50 SK-BR-3, SRB assay, 48 hours exposure; for TGI SK-BR-3: SRB assay, 48 hours exposure
Procedure, shortened: (§1)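 Read-out is sulforhodamine B protein stain (OD 490 nm) after cold TCA fixation, following 48 h continuous exposure to samples spanning 10 to 10^−8 μg/ml.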

IGROV-1 = assay: Inhibition of cells growth by colorimetric (SRB) assay, IGROV-1; conditions: for GI50 / CC50: Homo sapiens, IGROV-1, 48 h; for GI50: read-out: GI50 IGROV, SRB assay, 48 hours exposure; for CC50: read-out: LC50 IGROV, SRB assay, 48 hours exposure; for TGI IGROV: SRB assay, 48 hours exposure
Procedure, shortened: as §1

SK-OV-3 = assay: Inhibition of cells growth by colorimetric (SRB) assay, SK-OV-3; conditions: for GI50 / CC50: Homo sapiens, SK-OV-3, 48 h; for GI50: read-out: GI50 SKOV-3, SRB assay, 48 hours exposure; for CC50: read-out: LC50 SKOV-3, SRB assay, 48 hours exposure; for TGI SKOV-3: SRB assay, 48 hours exposure
Procedure, shortened: as §1

K-562 = assay: Inhibition of cells growth by colorimetric (SRB) assay, K-562; conditions: for GI50 / CC50: Homo sapiens, K562, 48 h; for GI50: read-out: GI50 K-562, SRB assay, 48 hours exposure; for CC50: read-out: LC50 K-562, SRB assay, 48 hours exposure; for TGI K-562: SRB assay, 48 hours exposure
Procedure, shortened: as §1

PANC-1 = assay: Inhibition of cells growth by colorimetric (SRB) assay, PANC-1; conditions: for GI50 / CC50: Homo sapiens, PANC-1, 48 h; for GI50: read-out: GI50 PANC-1, SRB assay, 48 hours exposure; for CC50: read-out: LC50 PANC-1, SRB assay, 48 hours exposure; for TGI PANC-1: SRB assay, 48 hours exposure
Procedure, shortened: as §1

HT-29 = assay: Inhibition of cells growth by colorimetric (SRB) assay, HT-29; conditions: for GI50 / CC50: Homo sapiens, HT-29, 48 h; for GI50: read-out: GI50 HT-29, SRB assay, 48 hours exposure; for CC50: read-out: LC50 HT-29, SRB assay, 48 hours exposure; for TGI HT-29: SRB assay, 48 hours exposure
Procedure, shortened: as §1

A-549 = assay: Inhibition of cells growth by colorimetric (SRB) assay, A-549; conditions: for GI50 / CC50: Homo sapiens, A549, 48 h; for GI50: read-out: GI50 A-549, SRB assay, 48 hours exposure; for CC50: read-out: LC50 A-549, SRB assay, 48 hours exposure; for TGI A-549: SRB assay, 48 hours exposure
Procedure, shortened: as §1

LoVo-Dox = assay: Inhibition of cells growth by colorimetric (SRB) assay, LoVo-Dox; conditions: for GI50 / CC50: Homo sapiens, 48 h; for GI50: read-out: GI50 LOVO-DOX, SRB assay, 48 hours exposure; for CC50: read-out: LC50 LOVO-DOX, SRB assay, 48 hours exposure; for TGI LOVO-DOX: SRB assay, 48 hours exposure
Procedure, shortened: as §1

LNCaP = assay: Inhibition of cells growth by colorimetric (SRB) assay, LNCaP; conditions: for GI50 / CC50: Homo sapiens, LNCaP, 48 h; for GI50: read-out: GI50 LN-caP, SRB assay, 48 hours exposure; for CC50: read-out: LC50 LN-caP, SRB assay, 48 hours exposure; for TGI LN-caP: SRB assay, 48 hours exposure
Procedure, shortened: as §1

IGROV-ET = assay: Inhibition of cells growth by colorimetric (SRB) assay, IGROV-ET; conditions: for GI50 / CC50: Homo sapiens, 48 h; for GI50: read-out: GI50 IGROV-ET, SRB assay, 48 hours exposure; for CC50: read-out: LC50 IGROV-ET, SRB assay, 48 hours exposure; for TGI IGROV-ET: SRB assay, 48 hours exposure
Procedure, shortened: as §1

SK-MEL-28 = assay: Inhibition of cells growth by colorimetric (SRB) assay, SK-MEL-28; conditions: for GI50 / CC50: Homo sapiens, SK-MEL-28, 48 h; for GI50: read-out: GI50 MEL-28, SRB assay, 48 hours exposure; for CC50: read-out: LC50 MEL-28, SRB assay, 48 hours exposure; for TGI MEL-28: SRB assay, 48 hours exposure
Procedure, shortened: as §1

DU-145 = assay: Inhibition of cells growth by colorimetric (SRB) assay, DU-145; conditions: for GI50 / CC50: Homo sapiens, DU-145, 48 h; for GI50: read-out: GI50 DU-145, SRB assay, 48 hours exposure; for CC50: read-out: LC50 DU-145, SRB assay, 48 hours exposure; for TGI DU-145: SRB assay, 48 hours exposure
Procedure, shortened: as §1

LoVo = assay: Inhibition of cells growth by colorimetric (SRB) assay, LoVo; conditions: for GI50 / CC50: Homo sapiens, LoVo, 48 h; for GI50: read-out: GI50 LOVO, SRB assay, 48 hours exposure; for CC50: read-out: LC50 LOVO, SRB assay, 48 hours exposure; for TGI LOVO: SRB assay, 48 hours exposure
Procedure, shortened: as §1

HMEC1 = assay: Inhibition of cells growth by colorimetric (SRB) assay, HMEC1; conditions: for GI50: Homo sapiens, HMEC-1, 48 h, read-out: GI50 H-MEC-1, SRB assay, 48 hours exposure; for TGI H-MEC-1: SRB assay, 48 hours exposure, in M (unit assumed)
[1] = as above; conditions: human, HMEC1 cells, LC50 H-MEC-1, SRB assay, 48 hours exposure

CSc1nccc2c(-c3cccs3)c3cccnc3n12 [Compound 60]
GI50 (SK-BR-3): 0.24 µM | CC50 (SK-BR-3): 3.36 µM | TGI SK-BR-3 (SK-BR-3): 9.95E−07 | GI50 (IGROV-1): 10.8 µM | CC50 (IGROV-1): ≥ 33.6 µM | TGI IGROV (IGROV-1): 3.36E−05 | GI50 (SK-OV-3): ≥ 33.6 µM | CC50 (SK-OV-3): ≥ 33.6 µM | TGI SKOV-3 (SK-OV-3): 3.36E−05 | GI50 (K-562): ≥ 33.6 µM | CC50 (K-562): ≥ 33.6 µM | TGI K-562 (K-562): 3.36E−05 | GI50 (PANC-1): ≥ 33.6 µM | CC50 (PANC-1): ≥ 33.6 µM | TGI PANC-1 (PANC-1): 3.36E−05 | GI50 (HT-29): ≥ 33.6 µM | CC50 (HT-29): ≥ 33.6 µM | TGI HT-29 (HT-29): 3.36E−05 | GI50 (A-549): 22.6 µM | CC50 (A-549): ≥ 33.6 µM | TGI A-549 (A-549): 3.36E−05 | GI50 (LoVo-Dox): ≥ 33.6 µM | CC50 (LoVo-Dox): ≥ 33.6 µM | TGI LOVO-DOX (LoVo-Dox): 3.36E−05 | GI50 (LNCaP): ≥ 33.6 µM | CC50 (LNCaP): ≥ 33.6 µM | TGI LN-caP (LNCaP): 3.36E−05 | GI50 (IGROV-ET): ≥ 33.6 µM | CC50 (IGROV-ET): ≥ 33.6 µM | TGI IGROV-ET (IGROV-ET): 3.36E−05 | GI50 (SK-MEL-28): ≥ 33.6 µM | CC50 (SK-MEL-28): ≥ 33.6 µM | TGI MEL-28 (SK-MEL-28): 3.36E−05 | GI50 (DU-145): ≥ 33.6 µM | CC50 (DU-145): ≥ 33.6 µM | TGI DU-145 (DU-145): 3.36E−05 | GI50 (LoVo): ≥ 33.6 µM | CC50 (LoVo): ≥ 33.6 µM | TGI LOVO (LoVo): 3.36E−05 | GI50 (HMEC1): 22.6 µM | TGI H-MEC-1 (HMEC1): 3.36E−05 | CC50 at 48 h [1]: ≥ 33.6 µM

C[S+]([O-])c1nccc(-c2c3c(Cl)ccnc3n3c(N)nccc23)n1 (stereo not shown) [Compound 110]
GI50 (SK-BR-3): 0.92 µM | CC50 (SK-BR-3): 11.6 µM | TGI SK-BR-3 (SK-BR-3): 1.98E−06 | GI50 (IGROV-1): 14.3 µM | CC50 (IGROV-1): ≥ 27.9 µM | TGI IGROV (IGROV-1): 2.79E−05 | GI50 (SK-OV-3): 11.9 µM | CC50 (SK-OV-3): ≥ 27.9 µM | TGI SKOV-3 (SK-OV-3): 2.79E−05 | GI50 (K-562): 9.92 µM | CC50 (K-562): ≥ 27.9 µM | TGI K-562 (K-562): 2.79E−05 | GI50 (PANC-1): 14.5 µM | CC50 (PANC-1): ≥ 27.9 µM | TGI PANC-1 (PANC-1): 2.79E−05 | GI50 (HT-29): 4.15 µM | CC50 (HT-29): ≥ 27.9 µM | TGI HT-29 (HT-29): 2.79E−05 | GI50 (A-549): 11 µM | CC50 (A-549): ≥ 27.9 µM | TGI A-549 (A-549): 2.79E−05 | GI50 (LoVo-Dox): 2.04 µM | CC50 (LoVo-Dox): ≥ 27.9 µM | TGI LOVO-DOX (LoVo-Dox): 1.21E−05 | GI50 (LNCaP): 1.45 µM | CC50 (LNCaP): 16.7 µM | TGI LN-caP (LNCaP): 4.71E−06 | GI50 (IGROV-ET): 10.9 µM | CC50 (IGROV-ET): ≥ 27.9 µM | TGI IGROV-ET (IGROV-ET): 2.79E−05 | GI50 (SK-MEL-28): 5.55 µM | CC50 (SK-MEL-28): ≥ 27.9 µM | TGI MEL-28 (SK-MEL-28): 2.79E−05 | GI50 (DU-145): 2.03 µM | CC50 (DU-145): ≥ 27.9 µM | TGI DU-145 (DU-145): 8.97E−06 | GI50 (LoVo): 1.38 µM | CC50 (LoVo): ≥ 27.9 µM | TGI LOVO (LoVo): 6.21E−06 | GI50 (HMEC1): 1.7 µM | TGI H-MEC-1 (HMEC1): 1.08E−05 | CC50 at 48 h [1]: ≥ 27.9 µM

COc1ccc(CNc2ccnc3c2c(-c2ccnc(OC)n2)c2ccnc(NCc4ccc(OC)cc4)n23)cc1 [Compound 87]
GI50 (SK-BR-3): 17.3 µM | CC50 (SK-BR-3): 17.3 µM | TGI SK-BR-3 (SK-BR-3): 1.73E−05 | GI50 (IGROV-1): 17.3 µM | CC50 (IGROV-1): 17.3 µM | TGI IGROV (IGROV-1): 1.73E−05 | GI50 (SK-OV-3): 17.3 µM | CC50 (SK-OV-3): 17.3 µM | TGI SKOV-3 (SK-OV-3): 1.73E−05 | GI50 (K-562): 17.3 µM | CC50 (K-562): 17.3 µM | TGI K-562 (K-562): 1.73E−05 | GI50 (PANC-1): 17.3 µM | GI50 (A-549): 17.3 µM | CC50 (A-549): 17.3 µM | TGI A-549 (A-549): 1.73E−05 | GI50 (LNCaP): 17.3 µM | CC50 (LNCaP): 17.3 µM | TGI LN-caP (LNCaP): 1.73E−05 | GI50 (IGROV-ET): 17.3 µM | CC50 (IGROV-ET): 17.3 µM | TGI IGROV-ET (IGROV-ET): 1.73E−05 | GI50 (SK-MEL-28): 17.3 µM | CC50 (SK-MEL-28): 17.3 µM | TGI MEL-28 (SK-MEL-28): 1.73E−05 | GI50 (DU-145): 18.3 µM | CC50 (DU-145): 17.3 µM | TGI DU-145 (DU-145): 1.73E−05 | GI50 (HMEC1): 7.3 µM | TGI H-MEC-1 (HMEC1): 1.73E−05 | CC50 at 48 h [1]: 17.3 µM
